Laboratory results published in patent publication US20230183647A1, “METHOD FOR GENERATING FUNCTIONAL SKELETAL MUSCLE FIBERS INNERVATED BY MOTONEURONS” (ASSOCIATION FRANCAISE CONTRE LES MYOPATHIES (AFM), priority 2020, published 2023).
“Also recorded” adds a separate entry of the source.

How the values were obtained:
hiPSC-derived myofibers = format: cell-based, human
[1] = test system: hiPSC-derived innervated myofibers; assay: Transient Calcium influx (Calcium handling) in hiPSC-derived innervated myofibers after drug addition; format: cell-based, human; conditions: for Calcium release: cells at D45, single addition
Procedure: A-D. We measured the transient Calcium influx in control myofibers prior to drug addition (0 hr) and at different time points after a single addition of different concentrations of each drug. Violin plots display the number of influx per minute and per fiber (n>50). Statistical significance was determined using ANOVA multiple comparison test followed by Brown-Forsythe and Welch correction and comparison to the basal condition (prior to drug addition). A. 0; 2 and 20 μM for Glutamate, B. 0; 1 and 10 μM for Salbutamol. C. 0; 0.5 and 1 mM for Carisoprodol. D. 0; 10 and 100 μM for Mexiletine.
Calcium transients were measured after addition to the cell culture medium of FLUO-8AM fluorescent Ca^2+ indicator (AAT Bioquest). Cells were incubated for 30 min at 37° c in DM+I medium containing 5 μM Fluo8-AM and 0.04% Pluronic acid before imaging on a Fast Imaging Observer system (Axio Observer.Z1/7; Zeiss) with a 10× lens (10×/0.30 M27 DIC I EC Plan-Neofluar; […]). Fluorescence was excited at 488 nm and emission collected at >509 nm. Images were acquired as time series. Different regions were tracked to record the fluorescent intensity at a 10× magnification during 30 seconds and an interval of 200,0 ms corresponding to 151 frames. Analysis was performed using the Zen pro software (Zeiss). ROI was created for selected fibers then intensity mean for each fiber was exported and Calcium transients were calculated by counting the number of peaks intensity for each graph.
For drug treatment, cells were seeded and differentiated in 6 to 12-well plates for 45 days. We tested the activity of Mexiletine (M2727, Sigma Aldrich, 10; 100 μM diluted in methanol), Carisoprodol (C8759, Sigma Aldrich, […]; […] diluted in ethanol), Salbutamol (S8260, Sigma Aldrich, 1 μM; 10 μM, diliuted in methanol) and L-Glutamic acid potassium salt monohydrate (G1501, Sigma Aldrich, 2 μM; 20 μM diluted in H2O) added at 0.1% in the culture medium on fiber contractions. Cell contractions were captured as described for Calcium handling measurements.
To evaluate the potential application of hiPSC-derived innervated myofibers as a preclinical model for drug testing, we tested the response to different classes of pharmaceutical agents by real time video microscopy and Calcium handling analysis. Cells at D45 were treated for different durations with different concentrations of each molecule at (FIG. 8A-D).

Molecule: Alpha Bungarotoxin
- cell contraction after drug addition (mean number of contractions) (hiPSC-derived myofibers): irreversibly blocked; also recorded: irreversibly inhibits cell contraction

Molecule: CC(C)(C)NCC(O)c1ccc(O)c(CO)c1 (centres unmarked) [Salbutamol]
- Ca2+ handling ([1]; 1 μM and 10 μM, cells at D45): decreases Ca^2+ handling as early as 4 hours

Molecule: NC1=N[C@H](O)[C@H]2[C@H]3O[C@]4(O)O[C@@H]([C@@H](O)[C@@]2(N1)[C@@H]4O)[C@]3(O)CO [Tetrodotoxin]
- cell contraction after drug addition (mean number of contractions) (hiPSC-derived myofibers): irreversibly blocked; also recorded: irreversibly inhibits cell contraction

Molecule: N[C@@H](CCC(=O)[O-])C(=O)[O-].O.[K+].[K+] [Glutamate, L-Glutamic acid potassium salt monohydrate]
- Calcium release ([1]; 2 μM): did not observe any difference
- Calcium release ([1]; 20 μM): increased activity 20 to 30 minutes

Molecule: CCCC(C)(COC(N)=O)COC(=O)NC(C)C (centres unmarked) [Carisoprodol]
- muscle contraction (Calcium influx) ([1]; 0.5 to 1 mM, cells at D45): reduces muscle contraction 3 to 4 hrs

Molecule: Cc1cccc(C)c1OCC(C)N (centres unmarked) [Mexiletine]
- Calcium handling ([1]; 10 μM, cells at D45): decrease in Calcium handling 2 hrs
- Calcium handling ([1]; 100 μM, cells at D45): sharp decrease 1 to 2 hrs
